Results: US20240366540A1, “MITOFUSIN INHIBITORS AND USES THEREOF” (Albert Einstein College of Medicine, priority 2021, published 2024)

Key:
[1] = test system: MEFs; assay: Metabolomics (TCA cycle carboxylic acids, NAD, NADH); type: cell-based, mouse
Experimental: Metabolomics. […] Cells were harvested using a cell scraper and centrifuged at 1200 rpm in 4° C. for 3 min. Each cell pellet sample was suspended into 250 to 700 μL of 80% aqueous methanol in an Eppendorf tube. The samples were vortex mixed for 15 s and sonicated in an ice-water bath for 5 min, followed by centrifugal clarification at 15,000 rpm and 5° C. in an Eppendorf […] centrifuge. The clear supernatants were collected. A standard stock solution of TCA cycle carboxylic acids, NAD and NADH was prepared in 80% methanol as S1. This standard solution S1 was serially diluted 1 to 4 (v/v) with the same solvent to make standard solutions S2 to S10. 20 μL of each standard solution and an aliquot of the clear supernatant from each cell was mixed with 20 μL of an internal standard solution containing 9 ^13C- or deuterium labeled analogues of the TCA cycle carboxylic acids (except isocitric acid), 20 μL of 200 mM 3-NPH solution and 20 μL of 150 mM of EDC solution. The mixtures were allowed to react at 30° C. for 30 min. After reaction, 120 μL of water was added to each solution. 10 μL of the resultant solutions was injected into a C18 UPLC column to quantitate the TCA cycle carboxylic acids by UPLC-MRM/MS with (-) ion detection, according to the procedure we described in a publication.

[2] = test system: MFN1 and MFN2; assay: MFN1 and MFN2 gene expression and protein levels; type: cell-based
Experimental: Western blot. Western blots were performed from whole cell lysates (WCL) prepared in lysis buffer containing 50 mM Tris-HCl pH 7.5, 1% Triton X-100, 150 mM NaCl, 5 mM MgCl2, 1 mM EGTA and 10% glycerol in the presence of protease inhibitor cocktail (Roche).
Analysis of mitochondrial biogenesis-related genes by q-PCR. Total RNA was extracted by using RNeasy Mini Kit (Qiagen) followed by cDNA synthesis using the SuperScript IV VILO Master Mix (Thermo Scientific), both performed according to the manufacturer's protocol. q-PCR was performed using the following primers: […]
For the q-PCR reaction, Power SYBR Green master mix (Thermo Scientific) was used according to the manufacturer's instructions. Briefly, each reaction consisted of 10 ng cDNA, 5 μL Power SYBR Green master mix, 200 nM primers (forward and reverse), and RNase-free water up to 10 μL. q-PCR was performed on the ViiA 7 Real-Time PCR System (Thermo Scientific) with the following cycle parameter: 95° C. for 10 min, 40 cycles of 95° C. for 15 s, and 60° C. for 1 min. q-PCR products were analyzed by melting curves for unspecific products or primer dimer formation. Rpl39 was used as housekeeping gene and 2^−ΔΔCT method was applied to determine the relative mRNAs expression.

[3] = test system: cells; assay: Cell viability assay (CellTiter-Glo); type: cell-based; conditions: 72 hours
Experimental: Cell viability assay. […] Cell viability was assayed after 72 hrs by addition of CellTiter-Glo reagent according to the manufacturer's protocol (Promega). Luminescence was measured using a […] microplate reader (TECAN). Viability assays were performed in at least triplicate and the data normalized to vehicle-treated control wells.

[4] = test system: mitochondrial biomass; assay: Mitochondrial biomass (Tomm20 protein, mitotracker green intensity, mitochondrial to nuclear DNA ratio); type: cell-based
Experimental: Western blot. Western blots were performed from whole cell lysates (WCL) prepared in lysis buffer containing 50 mM Tris-HCl pH 7.5, 1% Triton X-100, 150 mM NaCl, 5 mM MgCl2, 1 mM EGTA and 10% glycerol in the presence of protease inhibitor cocktail (Roche). WCL were separated on a 4-12% NuPAGE MES gel (Invitrogen), transferred into a PVDF membrane, block for 1 hr and immunoblot with the corresponding anti-bodies. Determination of mtDNA to genomic DNA ratio by q-PCR. DNA was extracted using DNeasy Blood and Tissue kit (Qiagen) according to the manufacturer's protocol. q-PCR was used to determine the ratio of mitochondrial DNA (mtDNA) and genomic DNA (gn DNA). The following primers were used for q-PCR reaction: […]

[5] = test system: mitochondrial biogenesis markers; assay: Mitochondrial biogenesis markers by q-PCR; type: cell-based
Experimental: Analysis of mitochondrial biogenesis-related genes by q-PCR. Total RNA was extracted by using RNeasy Mini Kit (Qiagen) followed by cDNA synthesis using the SuperScript IV VILO Master Mix (Thermo Scientific), both performed according to the manufacturer's protocol. q-PCR was performed using the following primers: For the q-PCR reaction, Power SYBR Green master mix (Thermo Scientific) was used according to the manufacturer's instructions. […] Rpl39 was used as housekeeping gene and 2^−ΔΔCT method was applied to determine the relative mRNAs expression.

[6] = test system: MEFs; assay: Caspase-3/7 activation assay; type: cell-based, mouse; conditions: 6 hr, Caspase-Glo 3/7
Experimental: Caspase-3/7 activation assay. Cells (5×10^3 cells/well) were seeded in a 96-well white plate and treated with MASM7, MFI8. Caspase 3/7 activation was measured after 6 hr by addition of the Caspase-Glo 3/7 reagent according to the manufacturer's protocol (Promega). Luminescence was detected by a F200 PRO microplate reader (TECAN). Caspase assays were performed in at least triplicate and the data normalized to vehicle-treated control wells. Dilutions of MASM7 or MFI8 were performed using a TECAN D300e Digital Dispenser from 10 mM stocks.

[7] = test system: MEFs; assay: Mitochondrial respiration in cellulo (OCR, Seahorse XF24); type: cell-based, mouse; conditions: WT MEFs; MASM7 1 μM or MFI8 20 μM, 6 hrs
Experimental: Mitochondrial respiration in cellulo. Mitochondrial oxygen consumption rates (OCR) were assessed using a XF24 Analyzer (Seahorse Biosciences, Billerica MA, USA). In brief, 3×10^4 MEFs were cultured in a XF24 cell culture microplate containing DMEM supplemented with 10% fetal bovine serum. […] OCR was normalized to cell number or total protein content per well for each condition tested.

[8] = test system: MEFs; assay: DNA damage, yH2AX immunofluorescence in MEFs; type: cell-based, mouse; conditions: 6 h
Experimental: Immunofluorescent analysis and microscopy. […] After treatments, cells were washed with PBS and fixed with 4% PFA for 15 min. […] After incubation with primary antibodies, cells were washed with PBS and incubated with the appropriate mouse secondary antibody (ThermoFisher Scientific; A-11001) in the blocking solution. After PBS washes, coverslips were dipped in water and mounted on glass slides using Vectashield containing DAPI (Vector laboratories). […] Data were analyzed with ImageJ.

[9] = test system: MEFs; assay: Mitochondrial depolarization assay (TMRE membrane potential); type: cell-based, mouse
Experimental: Mitochondrial depolarization assay (mtΔΨ). MEFs (10^4 cells/well) were seeded in a 96-well black plate and treated with MASM7 or MFI8 for 6 hrs. Following treatments, cells were stained with 250 nM TMRE (Sigma; Cat. 87917) for 20 min at 37° C. Subsequently, cells were washed with thrice with PBS. Fluorescence intensity was detected by a M100 microplate reader (TECAN, Ex: 540 nm/Em: 579 nm).

[10] = test system: MEFs; assay: Mitochondrial aspect ratio (Mito AR), live cell imaging
Experimental: Live cell imaging. MEFs were seeded on chamber slides (MatTek Corporation: 35 mm dishes, No. 1.5, 14 mm glass diameter) at ˜70% confluence. […] Images were taken with Leica SP5 inverted confocal microscope. Data were analyzed with Image J software. >200 mitochondria were measured per condition in mitochondrial aspect ratio.
Measurement of mitochondrial aspect ratio (Mito AR). Images that depict stained mitochondria with mitotracker green were analyzed using FIJI We measured for each mitochondrion its length and width. Then, we divided the length by the width for each mitochondrion to get its mitochondrial aspect ratio. >200 mitochondria were measured per treatment.

[11] = test system: MEFs; assay: RNA-seq gene expression; type: cell-based, mouse; conditions: RNA-seq
Source text: RNA-seq. Sequencing results were demultiplexed and converted to FASTQ format using Illumina bcl2fastq software. The sequencing reads were adapter and quality trimmed with Trimmomatic and then aligned to the mouse genome (build mm10/GRCm38) using the splice-aware STAR aligner. The featureCounts program was utilized to generate counts for each gene based on how many aligned reads overlap its exons. These counts were then normalized and used to test for differential expression using negative binomial generalized linear models implemented by the DESeq2 R package.

[12] = MFN1/MFN2 DKO MEFs reconstituted with WT MFN2

## CC(Sc1nnc(C2CC2)n1-c1ccccc1)C(=O)Nc1sc2c(c1C(N)=O)CCC2 (stereo not shown) [MASM7, 2-(2-((5-cyclopropyl-4-phenyl-4H-1,2,4-triazol-3-yl)thio)propanamido)-5,6-dihydro-4H-cyclopenta[b]thiophene-3-carboxamide]
[1]
  total NAD+/NADH ratio: no effect on total NAD^+/NADH ratio
[1]; UPLC-MRM/MS
  metabolites of the TCA cycle: no significant effect in the majority of the metabolites of the TCA cycle
[2]
  MFN1 and MFN2 gene expression and corresponding protein levels: neither MASM7 nor MFI8 altered
[3]
  cellular viability: neither MFI8 nor MASM7 decreased cellular viability
[4]
  Tomm20 protein levels, mitotracker green intensity and mitochondrial to nuclear DNA ratio: neither MASM7 nor MFI8 altered
[5]
  gene expression levels of mitochondrial biogenesis markers: no alteration
[6]
  caspase-3/7 activity: no effect
[7]
  respiration and mitochondrial ATP production (OCR): increased basal and maximal respiration and mitochondrial ATP production
[8]; MFN1/MFN2 DKO MEFs
  DNA damage (yH2AX foci): did not induce DNA damage in any of the cell lines
[8]; WT MEFs
  DNA damage (yH2AX foci): did not induce DNA damage in any of the cell lines
[9]; [12]
  mitochondrial membrane potential (TMRE): significantly increased mitochondrial membrane potential
[9]; WT MEFs, 6 hrs
  mitochondrial membrane potential (TMRE): concentration responsively increased mitochondrial membrane potential
[9]; co-treated with myxothiazol or rotenone
  compound-induced increase in mitochondrial membrane potential: revoked
[10]; MFN1/MFN2 DKO MEFs reconstituted with D725A/L727A or L727A MFN2 mutants
  mitochondrial aspect ratio: not when reconstituted with D725A/L727A or L727A MFN2 mutants
[10]; [12]
  mitochondrial aspect ratio: markedly increased mitochondrial aspect ratio
[11]
  gene expression of subunits of the respiratory complexes: altered expression of selected genes of the respiratory complexes rather than inducing a consistent trend
